The target of one experiment is T1, CDK2 (Homo sapiens, UniProt P24941).
T1 construct: endogenous in cells; host or cells: MDA-MB-231
As to the kind of experiment: CDK protein degradation activity (Western blotting), CDK2. The experiment is classed as cell-based. To be noted: MDA-MB-231 cells, 16 hours, Western blot. A digest of the protocol: (§1)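 Breast cancer line MDA-MB-231, 16 h compound treatment (100 nM–10 μM final, three doses). Immunoblot quantification of CDK2/CDK9 versus tubulin, normalized to DMSO control.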
For orientation: Immunoblotting shows a protein as a band on a membrane.

A further experiment has as its target T2, CDK9 (Homo sapiens, UniProt P50750).
T2 construct: endogenous in cells; host or cells: MDA-MB-231
As to the kind of experiment: CDK protein degradation activity (Western blotting), CDK9. To be noted: MDA-MB-231 cells, 16 hours, Western blot. It counts as cell-based. The method, boiled down: as §1

These results are taken from patent US20260125382A1, “COMPOUNDS FOR INHIBITING OR DEGRADING CDK2 AND/OR CDK9 AND MEDICINAL USE THEREOF” (KOREA RESEARCH INSTITUTE OF CHEMICAL TECHNOLOGY, priority 2022, published 2026).

Molecules are shown by their SMILES.

T2 sequence (P50750 whole entry): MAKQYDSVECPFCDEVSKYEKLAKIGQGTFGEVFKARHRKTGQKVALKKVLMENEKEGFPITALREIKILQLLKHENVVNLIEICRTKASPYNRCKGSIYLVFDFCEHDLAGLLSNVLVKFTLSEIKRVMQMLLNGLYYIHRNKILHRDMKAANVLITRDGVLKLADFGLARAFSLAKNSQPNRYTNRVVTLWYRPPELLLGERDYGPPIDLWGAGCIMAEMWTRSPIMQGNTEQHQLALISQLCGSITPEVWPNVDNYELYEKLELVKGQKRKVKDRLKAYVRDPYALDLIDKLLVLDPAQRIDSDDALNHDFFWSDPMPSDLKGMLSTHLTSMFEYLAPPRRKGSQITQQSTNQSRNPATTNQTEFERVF

Turning to `O=C1CC[C@@H](c2cccc(OCC(=O)N3CC(CN4CCC5(CC4)CC(N4CCN(c6ccc(Nc7ncnc8c7ncn8[C@H]7C[C@@H](NC(=O)Cc8ccccc8)C7)cc6)CC4)C5)C3)c2)C(=O)N1` [Compound 276, N-((1s,3s)-3-(6-((4-(4-(7-((1-(2-(3-(2,6-dioxopiperidin-3-yl)phenoxy)acetyl)azetidin-3-yl)methyl)-7-azaspiro[3.5]nonan-2-yl)piperazin-1-yl)phenyl)amino)-9H-purin-9-yl)cyclobutyl)-2-phenylacetamide], on CDK2, the “Enzyme degradation CDK2 (% remaining) @ 0.1 μM” value is listed as 30%, the “Enzyme degradation CDK2 (% remaining) @ 1 μM” value came out at 20% and the “Enzyme degradation CDK2 (% remaining) @ 10 μM” value stood at 20%. Also, on CDK9, the “Enzyme degradation CDK9 (% remaining) @ 0.1 μM” value is on record as 10%, the “Enzyme degradation CDK9 (% remaining) @ 1 μM” value came out at 0% and the “Enzyme degradation CDK9 (% remaining) @ 10 μM” value was determined as 0%.
For `O=C1CCC(N2C(=O)c3cccc(NCC(=O)N4CC(N5CCC6(CC5)CC(N5CCN(c7ccc(Nc8ncnc9c8ncn9[C@H]8C[C@@H](NC(=O)Cc9ccccc9)C8)cc7)CC5)C6)C4)c3C2=O)C(=O)N1` (stereo partly drawn) [Compound 277, N-((1s,3s)-3-(6-((4-(4-(7-(1-((2-(2,6-dioxopiperidin-3-yl)-1,3-dioxoisoindolin-4-yl)glycyl)azetidin-3-yl)-7-azaspiro[3.5]nonan-2-yl)piperazin-1-yl)phenyl)amino)-9H-purin-9-yl)cyclobutyl)-2-phenylacetamide], at CDK2, the “Enzyme degradation CDK2 (% remaining) @ 0.1 μM” value is listed as 30/30/30%, the “Enzyme degradation CDK2 (% remaining) @ 1 μM” value is 30/30/30% and the “Enzyme degradation CDK2 (% remaining) @ 10 μM” value is 30/30/30%. Besides, at CDK9, the “Enzyme degradation CDK9 (% remaining) @ 0.1 μM” value is listed as 0/0/0%, the “Enzyme degradation CDK9 (% remaining) @ 1 μM” value is given as 0/0/0% and the “Enzyme degradation CDK9 (% remaining) @ 10 μM” value is given as 0/0/0%.
With `O=C1CC[C@H](N2C(=O)c3ccc(NCC(=O)N4CC(N5CCC6(CC5)CC(N5CCN(c7ccc(Nc8ncnc9c8ncn9C8CC(NC(=O)Cc9ccccc9)C8)cc7)CC5)C6)C4)cc3C2=O)C(=O)N1` (stereo partly drawn) [Compound 278, N-((1s,3s)-3-(6-((4-(4-(7-(1-((2-(2,6-dioxopiperidin-3-yl)-1,3-dioxoisoindolin-5-yl)glycyl)azetidin-3-yl)-7-azaspiro[3.5]nonan-2-yl)piperazin-1-yl)phenyl)amino)-9H-purin-9-yl)cyclobutyl)-2-phenylacetamide], on CDK2, the “Enzyme degradation CDK2 (% remaining) @ 0.1 μM” value is on record as 50/50/50%, the “Enzyme degradation CDK2 (% remaining) @ 1 μM” value is on record as 50/50/50% and the “Enzyme degradation CDK2 (% remaining) @ 10 μM” value is 50/50/50%. At CDK9, the “Enzyme degradation CDK9 (% remaining) @ 0.1 μM” value is given as 10%, the “Enzyme degradation CDK9 (% remaining) @ 1 μM” value is 0% and the “Enzyme degradation CDK9 (% remaining) @ 10 μM” value was found to be 0%.
On to `O=C1CC[C@H](N2C(=O)c3cccc(N4CC(CN5CCC6(CC5)CC(N5CCN(c7ccc(Nc8ncnc9c8ncn9[C@H]8C[C@@H](NC(=O)Cc9ccccc9)C8)cc7)CC5)C6)C4)c3C2=O)C(=O)N1` [Compound 279, N-((1s,3s)-3-(6-((4-(4-(7-((1-(2-(2,6-dioxopiperidin-3-yl)-1,3-dioxoisoindolin-4-yl)azetidin-3-yl)methyl)-7-azaspiro[3.5]nonan-2-yl)piperazin-1-yl)phenyl)amino)-9H-purin-9-yl)cyclobutyl)-2-phenylacetamide], for which, at CDK2, the “Enzyme degradation CDK2 (% remaining) @ 0.1 μM” value amounted to 50%, the “Enzyme degradation CDK2 (% remaining) @ 1 μM” value was found to be 40% and the “Enzyme degradation CDK2 (% remaining) @ 10 μM” value was found to be 40%. At CDK9, the “Enzyme degradation CDK9 (% remaining) @ 0.1 μM” value turned out to be 40%, the “Enzyme degradation CDK9 (% remaining) @ 1 μM” value amounted to 10% and the “Enzyme degradation CDK9 (% remaining) @ 10 μM” value came to 10%.
Regarding `COc1ccc(C(=O)N2CC(CN3CCC4(CC3)CC(N3CCN(c5ccc(Nc6ncnc7c6ncn7[C@H]6C[C@@H](NC(=O)Cc7ccccc7)C6)cc5)CC3)C4)C2)cc1N1CCC(=O)NC1=O` [Compound 280, N-((1s,3s)-3-(6-((4-(4-(7-((1-(3-(2,4-dioxotetrahydropyrimidin-1(2H)-yl)-4-methoxybenzoyl)azetidin-3-yl)methyl)-7-azaspiro[3.5]nonan-2-yl)piperazin-1-yl)phenyl)amino)-9H-purin-9-yl)cyclobutyl)-2-phenylacetamide], on CDK2, the “Enzyme degradation CDK2 (% remaining) @ 0.1 μM” value amounted to 50%, the “Enzyme degradation CDK2 (% remaining) @ 1 μM” value came out at 30% and the “Enzyme degradation CDK2 (% remaining) @ 10 μM” value was determined as 30%. Moreover, on CDK9, the “Enzyme degradation CDK9 (% remaining) @ 0.1 μM” value is 50%, the “Enzyme degradation CDK9 (% remaining) @ 1 μM” value was determined as 10% and the “Enzyme degradation CDK9 (% remaining) @ 10 μM” value was found to be 10%.
For the compound `O=C1CC[C@@H](c2ccc(OCC(=O)N3CCC(CN4CCC(c5ccc(Nc6ncnc7c6ncn7C6CC(NC(=O)Cc7ccccc7)C6)cc5)CC4)CC3)cc2)C(=O)N1` (stereo partly drawn) [Compound 281, N-((1s,3s)-3-(6-((4-(1-((1-(2-(4-(2,6-dioxopiperidin-3-yl)phenoxy)acetyl)piperidin-4-yl)methyl)piperidin-4-yl)phenyl)amino)-9H-purin-9-yl)cyclobutyl)-2-phenylacetamide], at CDK2, the “Enzyme degradation CDK2 (% remaining) @ 0.1 μM” value is reported as 30%, the “Enzyme degradation CDK2 (% remaining) @ 1 μM” value is 50% and the “Enzyme degradation CDK2 (% remaining) @ 10 μM” value is on record as 50%. In addition, on CDK9, the “Enzyme degradation CDK9 (% remaining) @ 0.1 μM” value is listed as 0/0/0%, the “Enzyme degradation CDK9 (% remaining) @ 1 μM” value is 0/0/0% and the “Enzyme degradation CDK9 (% remaining) @ 10 μM” value is given as 0/0/0%.
Regarding `O=C1CC[C@@H](c2cccc(OCC(=O)N3CCC(CN4CCC(c5ccc(Nc6ncnc7c6ncn7C6CC(NC(=O)Cc7ccccc7)C6)cc5)CC4)CC3)c2)C(=O)N1` (stereo partly drawn) [Compound 282, N-((1s,3s)-3-(6-((4-(1-((1-(2-(3-(2,6-dioxopiperidin-3-yl)phenoxy)acetyl)piperidin-4-yl)methyl)piperidin-4-yl)phenyl)amino)-9H-purin-9-yl)cyclobutyl)-2-phenylacetamide], at CDK2, the “Enzyme degradation CDK2 (% remaining) @ 0.1 μM” value is 10%, the “Enzyme degradation CDK2 (% remaining) @ 1 μM” value was found to be 20% and the “Enzyme degradation CDK2 (% remaining) @ 10 μM” value was 20%. Besides, on CDK9, the “Enzyme degradation CDK9 (% remaining) @ 0.1 μM” value was 0/0/0%, the “Enzyme degradation CDK9 (% remaining) @ 1 μM” value is 0/0/0% and the “Enzyme degradation CDK9 (% remaining) @ 10 μM” value is recorded as 0/0/0%.
With `O=C1CC[C@@H](c2ccc(OCC(=O)N3CCC4(CC3)CC(N3CCC(c5ccc(Nc6ncnc7c6ncn7C6CC(NC(=O)Cc7ccccc7)C6)cc5)CC3)C4)cc2)C(=O)N1` (stereo partly drawn) [Compound 284, N-((1s,3s)-3-(6-((4-(1-(7-(2-(4-(2,6-dioxopiperidin-3-yl)phenoxy)acetyl)-7-azaspiro[3.5]nonan-2-yl)piperidin-4-yl)phenyl)amino)-9H-purin-9-yl)cyclobutyl)-2-phenylacetamide], on CDK2, the “Enzyme degradation CDK2 (% remaining) @ 0.1 μM” value came out at 40%, the “Enzyme degradation CDK2 (% remaining) @ 1 μM” value was determined as 50% and the “Enzyme degradation CDK2 (% remaining) @ 10 μM” value was 60%. In addition, at CDK9, the “Enzyme degradation CDK9 (% remaining) @ 0.1 μM” value is reported as 0/0/0%, the “Enzyme degradation CDK9 (% remaining) @ 1 μM” value is on record as 0/0/0% and the “Enzyme degradation CDK9 (% remaining) @ 10 μM” value is listed as 0/0/0%.
